{"source": "patent US6992079B2", "about": "“Substituted 11-phenyl-dibenzazepine compounds useful for the treatment or prevention of diseases characterized by abnormal cell proliferation” (President Fellows of Harvard College, priority 1997, dated 2006)", "key": {"[1]": {"tested_on": "H460 large cell lung carcinoma", "test": "Mouse xenograft tumor growth", "format": "in vivo, CD-1 nude mice"}, "[2]": {"tested_on": "CCRF-CEM", "test": "In-Vitro Testing SRB panel: Leukemia", "format": "cell-based"}, "[3]": {"tested_on": "MOLT-4", "test": "In-Vitro Testing SRB panel: Leukemia", "format": "cell-based"}, "[4]": {"tested_on": "A549/ATCC", "format": "cell-based"}, "[5]": {"tested_on": "NCI-H460", "format": "cell-based"}, "[6]": {"tested_on": "NCI-H522", "format": "cell-based"}, "[7]": {"tested_on": "HCT-15", "test": "In-Vitro Testing SRB panel: Colon Cancer", "format": "cell-based"}, "[8]": {"tested_on": "SW-620", "test": "In-Vitro Testing SRB panel: Colon Cancer", "format": "cell-based"}, "[9]": {"tested_on": "MALM-3M", "test": "In-Vitro Testing SRB panel: Melanoma", "format": "cell-based"}, "[10]": {"tested_on": "SK-MEL-2B", "test": "In-Vitro Testing SRB panel: Melanoma", "format": "cell-based", "details": "Homo sapiens, SK-MEL-28"}}, "note": "Like-named read-outs stand apart in the source and are kept apart here."}
{"smiles": "COc1ccc2c(c1)CN(C(=O)c1ccc([N+](=O)[O-])cc1)c1ccc(Cl)cc1C2c1ccccc1Cl", "note": "(stereo not shown) [Compound 30]", "values": [{"measurement": "tumor growth", "setting": "[1]", "result": "showed inhibition of tumor growth"}, {"measurement": "TGI", "setting": "[2]", "result": ">1.00E−04", "unit": "Molar"}, {"measurement": "GI50", "setting": "[2]; Homo sapiens", "result": 1850, "unit": "nM"}, {"measurement": "CC50", "setting": "[2]; Homo sapiens, read-out: LC50 (the source's name)", "result": "> 100", "unit": "µM"}, {"measurement": "Percent Growth", "setting": "[2]; Log10 concentration −4.0 Molar", "result": 39, "unit": "%"}, {"measurement": "Percent Growth", "setting": "[2]; Log10 concentration −5.0 Molar", "result": 22, "unit": "%"}, {"measurement": "Percent Growth", "setting": "[2]; Log10 concentration −6.0 Molar", "result": 60, "unit": "%"}, {"measurement": "Percent Growth", "setting": "[2]; Log10 concentration −7.0 Molar", "result": 70, "unit": "%"}, {"measurement": "Percent Growth", "setting": "[2]; Log10 concentration −8.0 Molar", "result": 73, "unit": "%"}, {"measurement": "GI50", "setting": "[3]; Homo sapiens, MOLT-4", "result": 1330, "unit": "nM"}, {"measurement": "CC50", "setting": "[3]; Homo sapiens, MOLT-4, read-out: LC50 (the source's name)", "result": "> 100", "unit": "µM"}, {"measurement": "TGI", "setting": "[3]; MOLT-4", "result": ">1.00E−04", "unit": "Molar"}, {"measurement": "Percent Growth", "setting": "[3]; MOLT-4, Log10 concentration −4.0 Molar", "result": 13, "unit": "%"}, {"measurement": "Percent Growth", "setting": "[3]; MOLT-4, Log10 concentration −5.0 Molar", "result": 23, "unit": "%"}, {"measurement": "Percent Growth", "setting": "[3]; MOLT-4, Log10 concentration −6.0 Molar", "result": 54, "unit": "%"}, {"measurement": "Percent Growth", "setting": "[3]; MOLT-4, Log10 concentration −7.0 Molar", "result": 89, "unit": "%"}, {"measurement": "Percent Growth", "setting": "[3]; MOLT-4, Log10 concentration −8.0 Molar", "result": 103, "unit": "%"}, {"measurement": "TGI", "setting": "[4]; A549/ATCC", "result": ">1.00E−04", "unit": "Molar"}, {"measurement": "Percent Growth", "setting": "[4]; A549/ATCC, Log10 concentration −4.0 Molar", "result": 23, "unit": "%"}, {"measurement": "Percent Growth", "setting": "[4]; A549/ATCC, Log10 concentration −5.0 Molar", "result": 25, "unit": "%"}, {"measurement": "Percent Growth", "setting": "[4]; A549/ATCC, Log10 concentration −6.0 Molar", "result": 81, "unit": "%"}, {"measurement": "Percent Growth", "setting": "[4]; A549/ATCC, Log10 concentration −7.0 Molar", "result": 96, "unit": "%"}, {"measurement": "Percent Growth", "setting": "[4]; A549/ATCC, Log10 concentration −8.0 Molar", "result": 96, "unit": "%"}, {"measurement": "GI50", "setting": "[4]; Homo sapiens, A549", "result": 3.57, "unit": "µM"}, {"measurement": "CC50", "setting": "[4]; Homo sapiens, A549/ATCC, read-out: LC50 (the source's name)", "result": "> 100", "unit": "µM"}, {"measurement": "GI50", "setting": "[5]; Homo sapiens, NCI-H460", "result": 2120, "unit": "nM"}, {"measurement": "CC50", "setting": "[5]; Homo sapiens, NCI-H460, read-out: LC50 (the source's name)", "result": "> 100", "unit": "µM"}, {"measurement": "TGI", "setting": "[5]; NCI-H460", "result": ">1.00E−04", "unit": "Molar"}, {"measurement": "Percent Growth", "setting": "[5]; NCI-H460, Log10 concentration −4.0 Molar", "result": 20, "unit": "%"}, {"measurement": "Percent Growth", "setting": "[5]; NCI-H460, Log10 concentration −5.0 Molar", "result": 16, "unit": "%"}, {"measurement": "Percent Growth", "setting": "[5]; NCI-H460, Log10 concentration −6.0 Molar", "result": 67, "unit": "%"}, {"measurement": "Percent Growth", "setting": "[5]; NCI-H460, Log10 concentration −7.0 Molar", "result": 97, "unit": "%"}, {"measurement": "Percent Growth", "setting": "[5]; NCI-H460, Log10 concentration −8.0 Molar", "result": 91, "unit": "%"}, {"measurement": "GI50", "setting": "[6]; Homo sapiens, NCI-H522", "result": 760, "unit": "nM"}, {"measurement": "CC50", "setting": "[6]; Homo sapiens, NCI-H522, read-out: LC50 (the source's name)", "result": "> 100", "unit": "µM"}, {"measurement": "TGI", "setting": "[6]; NCI-H522", "result": "6.10E−05", "unit": "Molar"}, {"measurement": "Percent Growth", "setting": "[6]; NCI-H522, Log10 concentration −4.0 Molar", "result": "−9", "unit": "%"}, {"measurement": "Percent Growth", "setting": "[6]; NCI-H522, Log10 concentration −5.0 Molar", "result": 19, "unit": "%"}, {"measurement": "Percent Growth", "setting": "[6]; NCI-H522, Log10 concentration −6.0 Molar", "result": 42, "unit": "%"}, {"measurement": "Percent Growth", "setting": "[6]; NCI-H522, Log10 concentration −7.0 Molar", "result": 113, "unit": "%"}, {"measurement": "Percent Growth", "setting": "[6]; NCI-H522, Log10 concentration −8.0 Molar", "result": 114, "unit": "%"}, {"measurement": "TGI", "setting": "[7]; HCT-15", "result": ">1.00E−04", "unit": "Molar"}, {"measurement": "Percent Growth", "setting": "[7]; HCT-15, Log10 concentration −4.0 Molar", "result": 39, "unit": "%"}, {"measurement": "Percent Growth", "setting": "[7]; HCT-15, Log10 concentration −5.0 Molar", "result": 40, "unit": "%"}, {"measurement": "Percent Growth", "setting": "[7]; HCT-15, Log10 concentration −6.0 Molar", "result": 77, "unit": "%"}, {"measurement": "Percent Growth", "setting": "[7]; HCT-15, Log10 concentration −7.0 Molar", "result": 98, "unit": "%"}, {"measurement": "Percent Growth", "setting": "[7]; HCT-15, Log10 concentration −8.0 Molar", "result": 109, "unit": "%"}, {"measurement": "GI50", "setting": "[7]; Homo sapiens, HCT-15", "result": 5.28, "unit": "µM"}, {"measurement": "CC50", "setting": "[7]; Homo sapiens, HCT-15, read-out: LC50 (the source's name)", "result": "> 100", "unit": "µM"}, {"measurement": "GI50", "setting": "[8]; Homo sapiens, SW-620", "result": "> 100", "unit": "µM"}, {"measurement": "CC50", "setting": "[8]; Homo sapiens, SW-620, read-out: LC50 (the source's name)", "result": "> 100", "unit": "µM"}, {"measurement": "TGI", "setting": "[8]; SW-620", "result": ">1.00E−04", "unit": "Molar"}, {"measurement": "Percent Growth", "setting": "[8]; SW-620, Log10 concentration −4.0 Molar", "result": 56, "unit": "%"}, {"measurement": "Percent Growth", "setting": "[8]; SW-620, Log10 concentration −5.0 Molar", "result": 57, "unit": "%"}, {"measurement": "Percent Growth", "setting": "[8]; SW-620, Log10 concentration −6.0 Molar", "result": 87, "unit": "%"}, {"measurement": "Percent Growth", "setting": "[8]; SW-620, Log10 concentration −7.0 Molar", "result": 99, "unit": "%"}, {"measurement": "Percent Growth", "setting": "[8]; SW-620, Log10 concentration −8.0 Molar", "result": 102, "unit": "%"}, {"measurement": "GI50", "setting": "[9]; Homo sapiens", "result": 342, "unit": "nM"}, {"measurement": "CC50", "setting": "[9]; Homo sapiens, MALM-3M, read-out: LC50 (the source's name)", "result": "> 100", "unit": "µM"}, {"measurement": "TGI", "setting": "[9]; MALM-3M", "result": "8.35E−05", "unit": "Molar"}, {"measurement": "Percent Growth", "setting": "[9]; MALM-3M, Log10 concentration −4.0 Molar", "result": "−4", "unit": "%"}, {"measurement": "Percent Growth", "setting": "[9]; MALM-3M, Log10 concentration −5.0 Molar", "result": 49, "unit": "%"}, {"measurement": "Percent Growth", "setting": "[9]; MALM-3M, Log10 concentration −6.0 Molar", "result": 16, "unit": "%"}, {"measurement": "Percent Growth", "setting": "[9]; MALM-3M, Log10 concentration −7.0 Molar", "result": 82, "unit": "%"}, {"measurement": "Percent Growth", "setting": "[9]; MALM-3M, Log10 concentration −8.0 Molar", "result": 96, "unit": "%"}, {"measurement": "GI50", "setting": "[10]", "result": "> 100", "unit": "µM"}, {"measurement": "CC50", "setting": "[10]; read-out: LC50 (the source's name)", "result": "> 100", "unit": "µM"}]}
